These results are taken from US7268162B2, “Aloe-emodin derivatives and their use in the treatment of neoplasias” (Universita' Degli Studi di Padova, priority 2001, dated 2007).

pEC50: −log10 of the molar value. Counter-ions that a name gives are not always drawn.

Data set [1] relates to tumour cells of neuroectodermal origin. The conditions noted are these: Italian patent application No. MI 2000A001216; cited from earlier work.
The conditions of data set [2]: water and physiological solution; cited from earlier work.
For data set [3], the system named is IMR5. Nature of the data set: In vitro cytotoxicity assay (MTT), neuroblastoma IMR-5. It counts as cell-based, human. The conditions noted are these: medium with 10% inactivated FBS. How it is done: (§1) In vitro cytotoxicity assays were conducted on different tumour cell lines, also of neuroectodermal origin. Purpose of said assays was also to check the compounds cytotoxic action and specificity. […] The aforesaid cells were assayed with the following compounds: • AM: ester of maleic acid (ex. 1) dissolved in DMSO • AS: ester of succinic acid (ex. 2) dissolved in DMSO • ADG: ester of diglycolic acid (ex. 3) dissolved in DMSO • AF: ester of phthalic acid (ex. 4) dissolved in DMSO • ABT: […] AE phosphoric ester (ex.12) dissolved in HEPES • AED: AE acetal with daunosamine (ex.13) dissolved in HEPES The cells, cultured according to known methods, were seeded 24 hrs prior to treatment with the various derivatives at a concentration of 1000 cells/100 μl. For molecules dissolved in dimethylsulphoxide, DMSO, the concentration of the initial stock was 200 mM and for molecules dissolved in a HEPES buffer and in the physiological solution was 1 mM. […] For each assay, a control was carried out with the medium alone (RPMI with 10% inactivated fetal bovine serum, FBS, and 1% penicillin/streptomycin). […] The cells viability was assessed by the MTT dye assay. […] The EC50 values (μM) referred to each compound and cell line are given.

The subject of data set [4] is SJ-N-KP. Nature of the data set: In vitro cytotoxicity assay (MTT), neuroblastoma SJ-N-KP. It counts as cell-based, human. The settings on record: 72 hrs exposure, medium with 10% inactivated FBS. How it is done: as §1
Data set [5] concerns LoVo 109. Nature of the data set: In vitro cytotoxicity assay (MTT), colon adenocarcinoma LoVo 109. It counts as cell-based, human. The settings on record: 72 hrs exposure, medium with 10% inactivated FBS. How it is done: as §1
Data set [6] deals with SJ-N-KP. In words: In vitro cytotoxicity assay (MTT), neuroblastoma SJ-N-KP. It counts as cell-based, human. The conditions noted are these: 72 hrs exposure, medium with non-inactivated FBS (esterase).
In data set [7] the test system is IMR5. In words: In vitro cytotoxicity assay (MTT), neuroblastoma IMR-5. The settings on record: 72 hrs exposure, medium with non-inactivated FBS (esterase). The data set is classed as cell-based, human.
The subject of data set [8] is LoVo 109. Nature of the data set: In vitro cytotoxicity assay (MTT), colon adenocarcinoma LoVo 109. It counts as cell-based, human. The conditions noted are these: 72 hrs exposure, medium with non-inactivated FBS (esterase).

A word on the pEC50: it is the negative decadic logarithm of the EC50, by convention in mol/L. Read a high pEC50 as a small EC50.

Take `O=C1c2cccc(O)c2C(=O)c2c(O)cc(CO)cc21` [Aloe-emodin, aloe-emodin]: the cytotoxicity entry in data set [1] was “specific cytotoxicity to tumour cells of neuroectodermal origin”. Besides, the solubility result in data set [2] is “hardly soluble in water and in the physiological solution”.
As to `O=C(O)C=CC(=O)OCc1cc(O)c2c(c1)C(=O)c1cccc(O)c1C2=O` [Ex. 1: AM, mono-(4,5-dihydroxy-9,10-dioxo-9,10-dihydroanthracen-2-ylmethyl)ester but-2-endioic acid], the negative-log EC50 (pEC50) in the data set on IMR5 [3] (72 hrs exposure) and in the data set with SJ-N-KP [4] was 3.55 to 3.57 each time.
Take `O=C(O)CCC(=O)OCc1cc(O)c2c(c1)C(=O)c1cccc(O)c1C2=O` [Ex. 2: AS, mono-(4,5-dihydroxy-9,10-dioxo-9,10-dihydroanthracen-2-ylmethyl)ester succinic acid]: the pEC50 in the data set on IMR5 [3] (72 hrs exposure) is 4.40; in the data set with LoVo 109 [5] it was 4.37; in the data set with SJ-N-KP [4], 4.37.
As for `O=C(O)COCC(=O)OCc1cc(O)c2c(c1)C(=O)c1cccc(O)c1C2=O` [Ex. 3: ADG, (4,5-Dihydroxy-9,10-dioxo-9,10-dihydroanthracen-2-ylmethoxycarbonylmethoxy) acetic acid], the pEC50 is 5.00 in the data set with IMR5 [3] (Homo sapiens, IMR-5, 72 hrs exposure); 4.70 with LoVo 109 [5] (Homo sapiens, LoVo); 5.00 in the data set on SJ-N-KP [4] (Homo sapiens).
Turning to `O=C(O)c1ccccc1C(=O)OCc1cc(O)c2c(c1)C(=O)c1cccc(O)c1C2=O` [Ex. 4: AF, mono-(4,5-dihydroxy-9,10-dioxo-9,10-dihydroanthracen-2-ylmethyl)ester phthalic acid], the pEC50 with SJ-N-KP [6] was 4.30; in the data set with IMR5 [7] it was 4.30; in the data set with IMR5 [3] (72 hrs exposure), 3.60; in the data set with LoVo 109 [8], 4.30; in the data set on SJ-N-KP [4], 3.52.
As to `O=C(O)c1ccc(C(=O)OCc2cc(O)c3c(c2)C(=O)c2cccc(O)c2C3=O)c(C(=O)O)c1` [Ex. 5: ABT, 1-(4,5-dihydroxy-9,10-dioxo-9,10-dihydroanthracen-2-ylmethyl)ester 1,2,4-Benzenetricarboxylic acid], the pEC50 is 3.80 with IMR5 [3] (72 hrs exposure) and 3.82 in the data set on SJ-N-KP [4].
Take `N[C@@H](Cc1c[nH]c2ccccc12)C(=O)OCc1cc(O)c2c(c1)C(=O)c1cccc(O)c1C2=O` [Ex. 6: TRIP, AE Ester with Tryptophan]: the pEC50 in the data set with IMR5 [3] (72 hrs exposure) was 5.00; in the data set on LoVo 109 [5], 5.05 to 5.10; in the data set with SJ-N-KP [4], 5.05 to 5.10.
With `CC(N)C(=O)OCc1cc(O)c2c(c1)C(=O)c1cccc(O)c1C2=O` (centres unmarked) [Ex. 7: ALA-NH2, AE Ester with Alanine], the results for the pEC50 with IMR5 [3] (72 hrs exposure) and with SJ-N-KP [4] were 3.52 and 3.58, respectively.
Consider `CC[C@H](C)[C@H](N)C(=O)OCc1cc(O)c2c(c1)C(=O)c1cccc(O)c1C2=O` [Ex. 8: PJ8, AE Ester with Isoleucine], for which the pEC50 is 5.05 with IMR5 [3] (72 hrs exposure), 4.70 in the data set with LoVo 109 [5] and 5.05 in the data set on SJ-N-KP [4].
Turning to `NC(Cc1ccc(O)cc1)C(=O)OCc1cc(O)c2c(c1)C(=O)c1cccc(O)c1C2=O` (centres unmarked) [Ex. 9: TIR-NH2, AE Ester with Tyrosine], the pEC50 was 4.59 with LoVo 109 [5] and 4.02 in the data set with SJ-N-KP [4].
Turning to `C[C@H](N)C(=O)OCc1cc(O)c2c(c1)C(=O)c1cccc(O)c1C2=O` [Ex. 10: EM9, ala-aloe-emodin trifluoroacetate], the pEC50 in the data set on IMR5 [3] (72 hrs exposure) is 5.17; with LoVo 109 [5], 5.30; with SJ-N-KP [4] it was 5.17.
Regarding `C[C@H](N)C(=O)OCc1cc(O)c2c(c1)C(=O)c1cccc(O)c1C2=O` [Ex. 11: ALA, ala-aloe-emodin hydrochloride], the pEC50 in the data set on IMR5 [3] (72 hrs exposure, hydrochloride) was 3.70; in the data set on IMR5 [3] (72 hrs exposure, listed as Ex. 11: ALA-HCI, hydrochloride), 4.15; in the data set on LoVo 109 [5] it was 3.70; in the data set on SJ-N-KP [4] (hydrochloride), 3.70; in the data set with SJ-N-KP [4] (listed as Ex. 11: ALA-HCI, hydrochloride), 4.15.
Consider `O=C1c2cccc(O)c2C(=O)c2c(O)cc(COP(=O)(O)O)cc21` [Ex. 12: AEP, AE Ester with Phosphoric Acid], for which the pEC50 with IMR5 [3] (72 hrs exposure) is 5.00; in the data set with LoVo 109 [5], 4.70; in the data set with SJ-N-KP [4], 4.92.
The matching figures for “AE Acetal with Daunosamine [Ex. 13: AED]”: 5.30, 5.00 and 5.30.
